Source: ChEMBL document CHEMBL5244272 (Eur J Med Chem, 2021)
≈ marks a conversion by molar mass, not a printed value.

What was measured:
Plasmodium falciparum [1] = experiment: Antimalarial activity against Plasmodium falciparum RKL9; type: functional, organism-based
Plasmodium falciparum [2] = experiment: Antimalarial activity against chloroquine-resistant Plasmodium falciparum K1; type: functional, organism-based
Plasmodium falciparum [3] = experiment: Antimalarial activity against chloroquine-sensitive Plasmodium falciparum HB3; type: functional, organism-based
Plasmodium berghei [4] = experiment: Antimalarial activity against Plasmodium berghei infected in po dosed mouse; type: functional
Plasmodium berghei [5] = experiment: Antimalarial activity against Plasmodium berghei K173 infected in mouse; type: functional
Plasmodium falciparum [6] = experiment: Antimalarial activity against Plasmodium falciparum W2; type: functional, organism-based
Plasmodium falciparum [7] = experiment: Antimalarial activity against ART-resistant Plasmodium falciparum Dd2 harboring R539T mutant; type: functional, organism-based
Plasmodium falciparum [8] = experiment: Antimalarial activity against Plasmodium falciparum D10; type: functional, organism-based
Plasmodium falciparum [9] = experiment: Antimalarial activity against ART-sensitive Plasmodium falciparum 3D7; type: functional, organism-based
Plasmodium falciparum [10] = experiment: Antimalarial activity against ART-sensitive Plasmodium falciparum NF54; type: functional, organism-based
Plasmodium falciparum [11] = experiment: Antimalarial activity against ART-sensitive Plasmodium falciparum W2; type: functional, organism-based
Plasmodium falciparum [12] = experiment: Antimalarial activity against ART-resistant Plasmodium falciparum NF54 harboring […] mutant; type: functional, organism-based
Plasmodium falciparum [13] = experiment: Antimalarial activity against late blood stage Plasmodium falciparum NF54 gametocytes; type: functional, organism-based
Plasmodium yoelii [14] = experiment: Antimalarial activity against Plasmodium yoelii infected in mouse; type: functional
Plasmodium yoelii [15] = experiment: Antimalarial activity against Plasmodium yoelii infected in po dosed mouse; type: functional
Plasmodium yoelii [16] = experiment: Antimalarial activity against Plasmodium yoelii infected in sc dosed mouse; type: functional
Plasmodium berghei [17] = experiment: Antimalarial activity against Plasmodium berghei infected in sc dosed mouse; type: functional; details: Plasmodium berghei
Plasmodium falciparum [18] = experiment: Antimalarial activity against chloroquine-sensitive Plasmodium falciparum NF54 infected in po dosed mouse; type: functional
Plasmodium falciparum [19] = experiment: Antimalarial activity against chloroquine-sensitive Plasmodium falciparum NF54 infected in iv dosed mouse; type: functional
Plasmodium falciparum [20] = experiment: Antimalarial activity against chloroquine-sensitive Plasmodium falciparum NF54; type: functional, organism-based
Plasmodium falciparum [21] = experiment: Antimalarial activity against Plasmodium falciparum 3D7; type: functional, organism-based
Plasmodium berghei [22] = experiment: Antimalarial activity against Plasmodium berghei ANKA infected in po dosed mouse; type: functional
[23] = Toxicity in brine shrimp; details: artemia salina
Plasmodium falciparum [24] = experiment: Antimalarial activity against Plasmodium falciparum K1; type: functional, organism-based
Plasmodium berghei [25] = experiment: Antimalarial activity against Plasmodium berghei infected in mouse; type: functional; details: Plasmodium berghei
Plasmodium falciparum [26] = experiment: Antimalarial activity against Plasmodium falciparum NF54; type: functional, organism-based
Plasmodium falciparum [27] = experiment: Antimalarial activity against Plasmodium falciparum Dd2; type: functional, organism-based

## CC1(c2ccccc2)OOC(c2ccccc2)(c2ccccc2)OO1
Plasmodium falciparum [1]
  IC50: 3.91 µg/mL

## CNCCO[C@H]1O[C@@H]2O[C@]3(C)CC[C@H]4[C@H](C)CC[C@@H]([C@H]1C)[C@@]24OO3
Plasmodium falciparum [2]
  IC50: 2.4 nM
Plasmodium falciparum [3]
  IC50: 2.7 nM

## CCO[C@H]1O[C@@H]2O[C@]3(C)CC[C@H]4[C@H](C)CC[C@@H]([C@H]1C)[C@@]24OO3
Plasmodium berghei [4]
  ED90: 6 mg/kg

## C[C@@H]1CC[C@H]2[C@@H](C)C(Nc3cccc(Cl)c3)O[C@@H]3O[C@]4(C)CC[C@@H]1[C@]32OO4 (some centres not stated)
Plasmodium berghei [5]
  SD50: 1.62 mg/kg/day

## C[C@H]1[C@H](N2CCS(=O)(=O)CC2)O[C@@H]2O[C@]3(C)CC[C@H]4[C@H](C)CC[C@@H]1[C@@]24OO3
Plasmodium falciparum [6]
  IC50: 0.9 nM
Plasmodium falciparum [7]
  IC50: 1.4 nM
Plasmodium falciparum [8]
  IC50: 1.1 nM
Plasmodium falciparum [9]
  IC50: 0.9 nM
Plasmodium falciparum [10]
  IC50: 0.9 nM
Plasmodium falciparum [11]
  IC50: 0.5 nM
Plasmodium falciparum [12]
  IC50: 0.7 nM
Plasmodium falciparum [13]
  IC50: 42.4 nM

## C[C@H]1[C@@H](CCN2CCN(c3cccc(C(F)(F)F)c3)CC2)O[C@@H]2O[C@]3(C)CC[C@H]4[C@H](C)CC[C@@H]1[C@@]24OO3
Plasmodium yoelii [14]
  ED90: < 10 mg/kg

## C[C@@H]1CC[C@H]2[C@@H](C)C(Nc3ccc(Cl)cc3)O[C@@H]3O[C@]4(C)CC[C@@H]1[C@]32OO4 (some centres not stated)
Plasmodium berghei [5]
  SD50: 1.77 mg/kg/day

## C[C@H]1[C@H](NC2CCN(Cc3ccccc3)CC2)O[C@@H]2O[C@]3(C)CC[C@H]4[C@H](C)CC[C@@H]1[C@@]24OO3
Plasmodium yoelii [15]
  ED90: 3 mg/kg
Plasmodium berghei [4]
  ED90: 2.4 mg/kg
Plasmodium yoelii [16]
  ED90: 0.85 mg/kg
Plasmodium berghei [17]
  ED90: 0.7 mg/kg

## C[C@H]1[C@H](CC(COC(=O)c2cc[n+]([O-])cc2)C[C@H]2O[C@@H]3O[C@]4(C)CC[C@H]5[C@H](C)CC[C@@H]([C@H]2C)[C@@]35OO4)O[C@@H]2O[C@]3(C)CC[C@H]4[C@H](C)CC[C@@H]1[C@@]24OO3 (some centres not stated)
Plasmodium falciparum [18]
  ED50: 2 mg/kg
Plasmodium falciparum [19]
  ED50: 0.8 mg/kg
Plasmodium falciparum [20]
  EC50: 0.53 nM

## CN1CCN(C2CCN(C(=O)CC3CCC4(CC3)OOC3(OO4)C4CC5CC(C4)CC3C5)CC2)CC1 (configuration not stated)
Plasmodium falciparum [21]
  IC50: 0.8 nM
Plasmodium berghei [22]; Plasmodium berghei, ANKA
  ED90: 4.18 mg/kg
Plasmodium berghei [22]; Plasmodium berghei, ANKA, read-out: ED50
  ED50: 1.33 mg/kg

## O=P1(N(CCCl)CCCl)NCCCO1 (configuration not stated) [CYCLOPHOSPHAMIDE ANHYDROUS]
[23]
  LC50: 1.08 µg/mL (≈ 4.14 µM)

## C[C@H]1[C@@H](OC(=O)c2ccc3[nH]cnc3c2)O[C@@H]2O[C@]3(C)CC[C@H]4[C@H](C)CC[C@@H]1[C@@]24OO3
[23]
  LC50: 362 µg/mL (≈ 844 µM)
Plasmodium falciparum [21]
  IC50: 6.96 nM

## CC1CC2CCC(C1)[C@@](C)(/C=C/[C@@H](O)C(C)(C)O)OO2 (some centres not stated)
Plasmodium yoelii [14]
  ED50: 95 mg/kg
Plasmodium falciparum [24]
  IC50: 56 nM

## CCN(Cc1cc(C2(C)OOC(c3ccccc3O)OO2)ccc1O)c1ccccc1 (configuration not stated)
Plasmodium falciparum [1]
  IC50: 5.3 µg/mL

## C[C@H]1[C@H](N2CCN(c3ccc(S(=O)(=O)N(C)C)c4nonc34)CC2)O[C@@H]2O[C@]3(C)CC[C@H]4[C@H](C)CC[C@@H]1[C@@]24OO3
Plasmodium falciparum [7]
  IC50: 497 nM
Plasmodium falciparum [9]
  IC50: 348 nM
Plasmodium falciparum [10]
  IC50: 16.4 nM
Plasmodium falciparum [11]
  IC50: 249 nM
Plasmodium falciparum [12]
  IC50: 13.5 nM

## C[C@H]1[C@H](CC(C[C@H]2O[C@@H]3O[C@]4(C)CC[C@H]5[C@H](C)CC[C@@H]([C@H]2C)[C@@]35OO4)C(=O)O)O[C@@H]2O[C@]3(C)CC[C@H]4[C@H](C)CC[C@@H]1[C@@]24OO3 (some centres not stated)
Plasmodium falciparum [18]
  ED50: 2 mg/kg
Plasmodium falciparum [19]
  ED50: 0.8 mg/kg
Plasmodium falciparum [20]
  EC50: 2.4 nM

## C[C@H]1[C@H](NS(=O)(=O)N2CCN(c3ccccn3)CC2)O[C@@H]2O[C@]3(C)CC[C@H]4[C@H](C)CC[C@@H]1[C@@]24OO3
Plasmodium falciparum [13]
  IC50: 0.04 nM

## C[C@H]1[C@@H](OCCCNc2ccc([N+](=O)[O-])c3nonc23)O[C@@H]2O[C@]3(C)CC[C@H]4[C@H](C)CC[C@@H]1[C@@]24OO3
Plasmodium falciparum [7]
  IC50: 19.6 nM
Plasmodium falciparum [9]
  IC50: 22.6 nM
Plasmodium falciparum [10]
  IC50: 11.2 nM
Plasmodium falciparum [11]
  IC50: 9.6 nM
Plasmodium falciparum [12]
  IC50: 9.5 nM

## C[C@H]1[C@H](NC2CCN(c3ncccn3)CC2)O[C@@H]2O[C@]3(C)CC[C@H]4[C@H](C)CC[C@@H]1[C@@]24OO3
Plasmodium yoelii [15]
  ED90: 2 mg/kg
Plasmodium berghei [4]
  ED90: 1.5 mg/kg
Plasmodium yoelii [16]
  ED90: 0.52 mg/kg
Plasmodium berghei [17]
  ED90: 0.46 mg/kg

## CCN(Cc1cc(C2(C)OOC(c3c[nH]c4ccccc34)OO2)ccc1O)c1ccccc1 (configuration not stated)
Plasmodium falciparum [1]
  IC50: 8.19 µg/mL

## CC1CC2CCC(C1)[C@@](C)(/C=C/[C@H](O)C(C)(C)O)OO2 (some centres not stated)
Plasmodium yoelii [14]
  ED50: 50 mg/kg
Plasmodium falciparum [24]
  IC50: 115 nM

## C[C@H]1[C@@H](CCOCc2cccc(F)c2)O[C@@H]2O[C@]3(C)CC[C@H]4[C@H](C)CC[C@@H]1[C@@]24OO3
Plasmodium falciparum [2]
  IC50: 3.78 nM
Plasmodium falciparum [3]
  IC50: 0.35 nM
Plasmodium berghei [25]
  ED50: 5.08 mg/kg

## C[C@@H]1CC[C@H]2[C@@H](C)C(Nc3ccc(C(=O)O)cc3)O[C@@H]3O[C@]4(C)CC[C@@H]1[C@]32OO4 (some centres not stated)
Plasmodium berghei [5]
  SD50: 1.36 mg/kg/day

## CCN(CC)Cc1ccc(CO[C@H]2O[C@@H]3O[C@]4(C)CC[C@H]5[C@H](C)CC[C@@H]([C@H]2C)[C@@]35OO4)cc1
Plasmodium falciparum [2]
  IC50: 1.4 nM
Plasmodium falciparum [3]
  IC50: 3.1 nM

## C[C@H]1[C@@H](OCc2ccc(CN3CCCC3)cc2)O[C@@H]2O[C@]3(C)CC[C@H]4[C@H](C)CC[C@@H]1[C@@]24OO3
Plasmodium falciparum [2]
  IC50: 2.3 nM
Plasmodium falciparum [3]
  IC50: 2.3 nM

## C[C@H]1[C@H](c2cccn2C)O[C@@H]2O[C@]3(C)CC[C@H]4[C@H](C)CC[C@@H]1[C@@]24OO3
Plasmodium berghei [4]
  ED90: 8.5 mg/kg
Plasmodium berghei [17]
  ED50: 0.7 mg/kg

## CC12C=CC(=O)CC1OC(c1c[nH]c3ccccc13)OO2 (configuration not stated)
Plasmodium falciparum [21]
  IC50: 1240 nM
Plasmodium falciparum [1]
  IC50: 1170 nM

## C[C@H]1[C@H](N2CCN(S(=O)(=O)c3cccc(C(F)(F)F)c3)CC2)O[C@@H]2O[C@]3(C)CC[C@H]4[C@H](C)CC[C@@H]1[C@@]24OO3
Plasmodium falciparum [13]
  IC50: 0.4 nM

## COc1cc(C2OOC3(C)C=CC(=O)CC3O2)ccc1O (configuration not stated)
Plasmodium falciparum [21]
  IC50: 1240 nM
Plasmodium falciparum [1]
  IC50: 1060 nM

## C[C@H]1[C@H](OC(=O)CCCc2ccccc2)O[C@@H]2O[C@]3(C)CC[C@H]4[C@H](C)CC[C@@H]1[C@@]24OO3
[23]
  LC50: 139 µg/mL (≈ 323 µM)
Plasmodium falciparum [21]
  IC50: 5.36 nM

## C[C@H]1[C@H](N2CCN(C(=O)c3ccc(F)cc3)CC2)O[C@@H]2O[C@]3(C)CC[C@H]4[C@H](C)CC[C@@H]1[C@@]24OO3
Plasmodium falciparum [26]
  IC50: 1.06 nM
Plasmodium falciparum [27]
  IC50: 1.5 nM
Plasmodium falciparum [13]
  IC50: 0.6 nM
Plasmodium falciparum [24]
  IC50: 2.1 nM

## CO[C@H]1O[C@@H]2O[C@@]3(C)CC[C@H]4[C@H](C)CC[C@@H]([C@H]1C)[C@@]24OO3
Plasmodium falciparum [6]
  IC50: 7 nM
Plasmodium falciparum [26]
  IC50: 2 nM
Plasmodium berghei [22]
  ED50: 10.57 mg/kg
Plasmodium berghei [25]
  ED50: 6 mg/kg
Plasmodium falciparum [24]
  IC50: 9 nM

## C[C@H]1[C@H](N2CCN(C(=O)Nc3ccc(C(F)(F)F)cc3)CC2)O[C@@H]2O[C@]3(C)CC[C@H]4[C@H](C)CC[C@@H]1[C@@]24OO3
Plasmodium falciparum [26]
  IC50: 1.83 nM
Plasmodium falciparum [27]
  IC50: 12.2 nM
Plasmodium falciparum [13]
  IC50: 0.6 nM
Plasmodium falciparum [24]
  IC50: 1.12 nM
